Read-outs that look alike come from different tables or passages of the source.
Experiments:
[1] = system: cat fleas (Ctenocephalides felis); experiment: Efficacy of various isoxazolines against cat fleas on mice (Example 3); assay type: in vivo; settings: Ctenocephalides felis, po, read-out: Flea inhibition relative to negative control
Description: In this experiment, mice were randomly assigned to a treatment group or a negative control (untreated) group. Each group consisted of three mice. The mice in the treatment groups were orally administered 20 mg/kg bodyweight of various isoxazolines dissolved in 7% DMF-premix and 93% purified water (aqua ad injectabilia). The application volume of these treatments was 0.01 mL/g bodyweight. One hour after treatment, each mouse was sedated and generally infested (whole body) with 30 vital, adult fleas (C. felis). To achieve this, the sedated mice were placed into an infestation-jar, and the fleas were placed directly onto the fur. After approximately 30 minutes of feeding, fleas were recovered from the mice. Assessments for inhibition and mortality were conducted 1 hr, 24 hr, and 48 hr after each infestation. The efficacy was calculated as the percentage of inhibited fleas in the treatment groups relative to the negative control group.

[2] = system: brown dog ticks (Rhipicephalus sanguineus) nymphs; experiment: Efficacy of various isoxazolines against brown dog ticks on Guinea pigs (Example 4); assay type: in vivo; settings: po
Description: In this experiment, Guinea pigs were randomly assigned to a treatment group or a negative control (untreated) group. Each group consisted of three Guinea pigs. On Day Zero, each Guinea pig was infested with 100 vital nymphs of R. sanguineus. On Day 1, the Guinea pigs in the treatment groups were orally administered 10 mg/kg bodyweight of various isoxazolines dissolved in 7% DMF-premix and 93% purified water (aqua ad injectabilia). Engorged, detached nymphs were counted (eN) from Day 4 to […] on engorged nymphs (%) (eN control group—EeN treatment group)×100 eN control group
In addition, collected ticks were assessed for molting into the next stage.

[3] = system: cat fleas (Ctenocephalides felis); experiment: Adult fleas fed on artificial membranes with spiked blood (Example 1); settings: 48 hr continuous feeding
Description: Adult fleas (20-30) were fed on artificial membranes with blood spiked with Compound 10-1, Compound 11-1, or a positive control (fipronil) at a concentration of 100, 10, or 1 ppm. Flea efficacy was assessed after 48 hr of continuous feeding by comparing the number of killed and damaged fleas with the number of fed fleas. Flea efficacy was 100% for Compound 10-1, Compound 11-1, and fipronil at 100, 10, and 1 ppm.

[4] = 1 h, mice, oral 20 mg/kg, infested 1 hr after treatment, 1 hr after infestation
[5] = 24 h, mice, oral 20 mg/kg, infested 1 hr after treatment, 24 hr after infestation
[6] = 48 h, mice, oral 20 mg/kg, infested 1 hr after treatment, 48 hr after infestation
[7] = Guinea pigs, oral 10 mg/kg on Day 1, infested Day Zero, engorged detached nymphs counted from Day 4, read-out: Inhibition (efficacy on engorged nymphs)

Q: What does the source list for `CCON=CNC(=O)c1ccc(C2=NOC(c3cc(Cl)cc(Cl)c3)(C(F)(F)F)C2)cc1I` (stereo not shown) [Compound 5-44]?
A: pest or weed control at 20 mg/kg [1, 4]: 0%; pest or weed control at 20 mg/kg [1, 5]: 75.6%; pest or weed control at 20 mg/kg [1, 6]: 78.9%; pest or weed control at 10 mg/kg [2, 7]: 15.6%

Q: Which results are given for `CON=CNC(=O)c1ccc(C2=NOC(c3cc(Cl)cc(Cl)c3)(C(F)(F)F)C2)cc1Cl` (stereo not shown) [Compound 5-51]?
A: pest or weed control at 20 mg/kg [1, 4]: 0%; pest or weed control at 20 mg/kg [1, 5]: 97.8%; pest or weed control at 20 mg/kg [1, 6]: 97.8%; pest or weed control at 10 mg/kg [2, 7]: 52.1%

Q: Which pest or weed control at 20 mg/kg [1, 4] does the source give for `Cc1cc(C2=NOC(c3cc(Cl)cc(Cl)c3)(C(F)(F)F)C2)ccc1C(=O)NN(C)c1ccccc1` (stereo not shown) [Compound 5-52] here?
A: 0%

Q: What about the pest or weed control at 20 mg/kg [1, 5] of the same compound?
A: 96.7%

Q: What about the pest or weed control at 20 mg/kg [1, 6] of the same compound?
A: 96.7%

Q: And the pest or weed control at 10 mg/kg [2, 7]?
A: 93.4%

Q: `NC(=O)NC(=O)c1ccc(C2=NOC(c3cc(Cl)cc(Cl)c3)(C(F)(F)F)C2)cc1I` (stereo not shown) [Compound 5-59] was tested. Which pest or weed control at 20 mg/kg [1, 4] did it give?
A: 18.8%

Q: What about the pest or weed control at 20 mg/kg [1, 5] of the same compound?
A: 94.4%

Q: And the pest or weed control at 20 mg/kg [1, 6]?
A: 95.6%

Q: What about the pest or weed control at 10 mg/kg [2, 7] of the same compound?
A: 96.3%

Q: Which Flea efficacy ([3]; blood spiked at 1 ppm) does the source give for `CO/N=C\NC(=O)c1ccc(C2=NOC(c3cc(Cl)cc(Cl)c3)(C(F)(F)F)C2)cc1C` (stereo not shown) [Compound 10-1, (Z)-4-[5-(3,5-dichlorophenyl)-5-trifluoromethyl-4,5-dihydroisoxazol-3-yl]-N-[(methoxyimino)methyl]-2-methylbenzamide] here?
A: 100%

Q: And the Flea efficacy ([3]; blood spiked at 10 ppm)?
A: 100%

Q: What about the Flea efficacy ([3]; blood spiked at 100 ppm) of the same compound?
A: 100%

Q: For `CCC(=O)N(Cc1cscn1)C(=O)c1ccc(C2=NOC(c3cc(Cl)cc(Cl)c3)(C(F)(F)F)C2)cc1C` (stereo not shown) [Compound 5-58], which pest or weed control at 20 mg/kg [1, 4] is on record?
A: 11.1%

Q: And the pest or weed control at 20 mg/kg [1, 5]?
A: 100%

Q: And the pest or weed control at 20 mg/kg [1, 6]?
A: 100%

Q: What about the pest or weed control at 10 mg/kg [2, 7] of the same compound?
A: 100%

Q: For `Cc1cc(C2=NOC(c3cc(Cl)cc(Cl)c3)(C(F)(F)F)C2)ccc1C(=O)NCc1cscn1` (stereo not shown) [Compound 5-66], which pest or weed control at 20 mg/kg [1, 4] is on record?
A: 77.8%

Q: And the pest or weed control at 20 mg/kg [1, 5]?
A: 100%

Q: What about the pest or weed control at 20 mg/kg [1, 6] of the same compound?
A: 100%

Q: And the pest or weed control at 10 mg/kg [2, 7]?
A: 100%

Q: Which results are given for `COC(=O)N(C(=O)c1ccc(C2=NOC(c3cc(Cl)cc(Cl)c3)(C(F)(F)F)C2)cc1C)N(C)c1ccccc1` (stereo not shown) [Compound 5-47]?
A: pest or weed control at 20 mg/kg [1, 4]: 0%; pest or weed control at 20 mg/kg [1, 5]: 95.6%; pest or weed control at 20 mg/kg [1, 6]: 96.7%; pest or weed control at 10 mg/kg [2, 7]: 58.5%

Q: How did the pest or weed control at 20 mg/kg [1, 4] turn out when `CC(=O)N(C(=O)c1ccc(C2=NOC(c3cc(Cl)cc(Cl)c3)(C(F)(F)F)C2)cc1C)c1ncc(Cl)cn1` (stereo not shown) [Compound 5-60] was run?
A: 26.6%

Q: And the pest or weed control at 20 mg/kg [1, 5]?
A: 96.7%

Q: And the pest or weed control at 20 mg/kg [1, 6]?
A: 96.7%

Q: And the pest or weed control at 10 mg/kg [2, 7]?
A: 78.9%

Q: Which pest or weed control at 20 mg/kg [1, 4] does the source give for `COCN(C(=O)c1ccc(C2=NOC(c3cc(Cl)cc(Cl)c3)(C(F)(F)F)C2)cc1C)c1ncc(C#N)cn1` (stereo not shown) [Compound 5-46] here?
A: 0%

Q: And the pest or weed control at 20 mg/kg [1, 5]?
A: 85.6%

Q: What about the pest or weed control at 20 mg/kg [1, 6] of the same compound?
A: 86.7%

Q: And the pest or weed control at 10 mg/kg [2, 7]?
A: 26.4%

Q: For `CO/N=C\NC(=O)c1ccc(C2=NOC(c3cc(Cl)cc(Cl)c3)(C(F)(F)F)C2)cc1C` (stereo not shown) [Compound 5-43], which pest or weed control at 20 mg/kg [1, 5] is on record?
A: 92.2%

Q: What about the pest or weed control at 20 mg/kg [1, 6] of the same compound?
A: 92.2%

Q: What about the pest or weed control at 10 mg/kg [2, 7] of the same compound?
A: 0%

Q: `CO/N=C\NC(=O)c1ccc(C2=NOC(c3cc(Cl)cc(Cl)c3)(C(F)(F)F)C2)cc1I` (stereo not shown) [Compound 5-62] was tested. Which pest or weed control at 20 mg/kg [1, 4] did it give?
A: 10%

Q: And the pest or weed control at 20 mg/kg [1, 5]?
A: 81.1%

Q: And the pest or weed control at 20 mg/kg [1, 6]?
A: 81.1%

Q: What about the pest or weed control at 10 mg/kg [2, 7] of the same compound?
A: 88.5%

Q: What does the source list for `CCOCN(C(=O)OC)C(=O)c1ccc(C2=NOC(c3cc(Cl)cc(Cl)c3)(C(F)(F)F)C2)cc1C` (stereo not shown) [Compound 5-65]?
A: pest or weed control at 20 mg/kg [1, 4]: 58.8%; pest or weed control at 20 mg/kg [1, 5]: 92.2%; pest or weed control at 20 mg/kg [1, 6]: 93.3%; pest or weed control at 10 mg/kg [2, 7]: 79.2%

Q: With `CCOCN(C(=O)OC)C(=O)c1ccc(C2=NOC(c3cc(Cl)cc(Cl)c3)(C(F)(F)F)C2)cc1I` (stereo not shown) [Compound 5-56] as the compound, how does the pest or weed control at 20 mg/kg [1, 4] read?
A: 0%

Q: And the pest or weed control at 20 mg/kg [1, 5]?
A: 87.8%

Q: And the pest or weed control at 20 mg/kg [1, 6]?
A: 88.9%

Q: What about the pest or weed control at 10 mg/kg [2, 7] of the same compound?
A: 76%

Q: Which pest or weed control at 20 mg/kg ([1]; 1 h) does the source give for `COC(=O)NC(=O)c1ccc(C2=NOC(c3cc(Br)cc(Br)c3)(C(F)(F)F)C2)cc1C` (stereo not shown) [Compound 5-14] here?
A: 4.4%

Q: What about the pest or weed control at 20 mg/kg ([1]; 24 h) of the same compound?
A: 13.3%

Q: What about the pest or weed control at 20 mg/kg ([1]; 48 h) of the same compound?
A: 22.2%

Q: What about the pest or weed control at 10 mg/kg ([2]; read-out: Inhibition (efficacy on engorged nymphs)) of the same compound?
A: 22.4%

Q: `COCN(C(=O)OC)C(=O)c1ccc(C2=NOC(c3cc(Cl)cc(Cl)c3)(C(F)(F)F)C2)cc1C` (stereo not shown) [Compound 5-63] was tested. Which pest or weed control at 20 mg/kg [1, 4] did it give?
A: 30%

Q: And the pest or weed control at 20 mg/kg [1, 5]?
A: 95.6%

Q: What about the pest or weed control at 20 mg/kg [1, 6] of the same compound?
A: 98.9%

Q: What about the pest or weed control at 10 mg/kg [2, 7] of the same compound?
A: 85.3%

Q: `Cc1cc(C2=NOC(c3cc(Cl)cc(Cl)c3)(C(F)(F)F)C2)ccc1C(=O)N[C@@H]1CCOC1` (stereo partly shown) [Compound 5-68] was tested. Which pest or weed control at 20 mg/kg [1, 4] did it give?
A: 75.5%

Q: What about the pest or weed control at 20 mg/kg [1, 5] of the same compound?
A: 91.1%

Q: What about the pest or weed control at 20 mg/kg [1, 6] of the same compound?
A: 95.6%

Q: What about the pest or weed control at 10 mg/kg [2, 7] of the same compound?
A: 100%

Q: Which results are given for `Cc1cc(C2=NOC(c3cc(Cl)cc(Cl)c3)(C(F)(F)F)C2)ccc1C(=O)Nc1ncc(C#N)cn1` (stereo not shown) [Compound 5-45]?
A: pest or weed control at 20 mg/kg [1, 4]: 0%; pest or weed control at 20 mg/kg [1, 5]: 92.2%; pest or weed control at 20 mg/kg [1, 6]: 93.3%; pest or weed control at 10 mg/kg [2, 7]: 0%

Q: How did the pest or weed control at 20 mg/kg [1, 4] turn out when `CC(=O)N(C(=O)c1ccc(C2=NOC(c3cc(Cl)cc(Cl)c3)(C(F)(F)F)C2)cc1C)N(C)c1ccccc1` (stereo not shown) [Compound 5-57] was run?
A: 0%

Q: And the pest or weed control at 20 mg/kg [1, 5]?
A: 86.7%

Q: What about the pest or weed control at 20 mg/kg [1, 6] of the same compound?
A: 87.7%

— patent US20240239759A1, “ISOXAZOLINE COMPOSITIONS AND THEIR USE AS ANTIPARASITICS” (Intervet Inc., priority 2007, published 2024)
